Active and inactive are the calls of the source. The calls are words filed in the database; no cut-off is given here.
Columns and labels:
[1] = system: Aspergillus fumigatus; experiment: Compound was tested for the antifungal activity against Aspergillus fumigatus (R-1301) at a concentration of 10 ug/disk; zone of inhibition was measured after 48 hr incubation.; format: functional
[2] = system: Aspergillus fumigatus; experiment: Compound was tested for the antifungal activity against Aspergillus fumigatus (R-1301) at a concentration of 0.1 ug/disk; zone of inhibition was measured after 48 hr incubation.; format: functional
[3] = system: Aspergillus fumigatus; experiment: Compound was tested for the antifungal activity against Aspergillus fumigatus (R-1301) at a concentration of 1 ug/disk; zone of inhibition was measured after 48 hr incubation.; format: functional
[4] = system: Candida albicans; experiment: Compound was tested for the antifungal activity against Candida albicans (IFO1594) at a concentration of 0.1 ug/disk; zone of inhibition was measured after 48 hr incubation; +/- denotes slightly effective; format: functional, organism-based
[5] = system: Candida albicans; experiment: Compound was tested for the antifungal activity against Candida albicans (IFO1594) at a concentration of 10 ug/disk; zone of inhibition was measured after 48 hr incubation.; format: functional
[6] = system: Candida albicans; experiment: Compound was tested for the antifungal activity against Candida albicans (IFO1594) at a concentration of 1 ug/disk; zone of inhibition was measured after 48 hr incubation.; format: functional
[7] = system: Fusarium solani; experiment: Compound was tested for the antifungal activity against Fusarium solani (R-2800) at a concentration of 1 ug/disk; zone of inhibition was measured after 48 hr incubation; incomplete inhibition observed; format: functional
[8] = system: Fusarium solani; experiment: Compound was tested for the antifungal activity against Fusarium solani (R-2800) at a concentration of 0.1 ug/disk; zone of inhibition was measured after 48 hr incubation; NE denotes not effective; format: functional, organism-based
[9] = system: Fusarium solani; experiment: Compound was tested for the antifungal activity against Fusarium solani (R-2800) at a concentration of 10 ug/disk; zone of inhibition was measured after 48 hr incubation; incomplete inhibition observed; format: functional
[10] = system: MRC5; experiment: Cytotoxicity against human diploid embryotic cell line (MRC-5); format: functional, cell-based
[11] = system: Penicillium citrinum; experiment: Compound was tested for the antifungal activity against Penicillium citrinum (R-3703) at a concentration of 0.1 ug/disk; zone of inhibition was measured after 48 hr incubation; +/- denotes slightly effective; format: functional, organism-based
[12] = system: Penicillium citrinum; experiment: Compound was tested for the antifungal activity against Penicillium citrinum (R-3703) at a concentration of 10 ug/disk; zone of inhibition was measured after 48 h incubation.; format: functional
[13] = system: Penicillium citrinum; experiment: Compound was tested for the antifungal activity against Penicillium citrinum (R-3703) at a concentration of 1 ug/disk; zone of inhibition was measured after 48 hr incubation.; format: functional
[14] = system: Saccharomyces cerevisiae; experiment: Compound was tested for the antifungal activity against Saccharomyces cerevisiae (IAM4861) at a concentration of 10 ug/disk; zone of inhibition was measured after 48 hr incubation.; format: functional
[15] = system: Saccharomyces cerevisiae; experiment: Compound was tested for the antifungal activity against Saccharomyces cerevisiae (IAM4861) at a concentration of 0.1 ug/disk; zone of inhibition was measured after 48 hr incubation.; format: functional
[16] = system: Saccharomyces cerevisiae; experiment: Compound was tested for the antifungal activity against Saccharomyces cerevisiae (IAM4861) at a concentration of 1 ug/disk; zone of inhibition was measured after 48 hr incubation.; format: functional
[17] = system: Aspergillus fumigatus; experiment: Compound was tested for the antifungal activity against Aspergillus fumigatus (R-1301) at a concentration of 0.1 ug/disk; zone of inhibition was measured after 48 hr incubation; +/- denotes slightly effective; format: functional, organism-based
[18] = system: Candida albicans; experiment: Compound was tested for the antifungal activity against Candida albicans (IFO1594) at a concentration of 0.1 ug/disk; zone of inhibition was measured after 48 h incubation; NE denotes not effective; format: functional, organism-based
[19] = system: Penicillium citrinum; experiment: Compound was tested for the antifungal activity against Penicillium citrinum (R-3703) at a concentration of 0.1 ug/disk; zone of inhibition was measured after 48 hr incubation; NE denotes not effective; format: functional, organism-based
[20] = system: Penicillium citrinum; experiment: Compound was tested for the antifungal activity against Penicillium citrinum (R-3703) at a concentration of 10 ug/disk; the diameter of each inhibition zone was measured after 48 hr incubation; NE denotes not effective; format: functional, organism-based
[21] = system: Penicillium citrinum; experiment: Compound was tested for the antifungal activity against Penicillium citrinum (R-3703) at a concentration of 1 ug/disk; zone of inhibition was measured after 48 hr incubation; NE denotes not effective; format: functional, organism-based
[22] = system: Saccharomyces cerevisiae; experiment: Compound was tested for the antifungal activity against Saccharomyces cerevisiae (IAM4861) at a concentration of 0.1 ug/disk; zone of inhibition was measured after 48 hr incubation; +/- denotes slightly effective; format: functional, organism-based
[23] = system: Aspergillus fumigatus; experiment: Compound was tested for the antifungal activity against Aspergillus fumigatus (R-1301) at a concentration of 0.1 ug/disk; zone of inhibition was measured after 48 hr incubation; NE denotes not effective; format: functional, organism-based
[24] = system: Candida albicans; experiment: Compound was tested for the antifungal activity against Candida albicans (IFO1594) at a concentration of 1 ug/disk; zone of inhibition was measured after 48 h incubation; incomplete inhibition observed; format: functional
[25] = system: Candida albicans; experiment: Compound was tested for the antifungal activity against Candida albicans (IFO1594) at a concentration of 10 ug/disk; zone of inhibition was measured after 48 hr incubation; incomplete inhibition observed; format: functional
[26] = system: Fusarium solani; experiment: Compound was tested for the antifungal activity against Fusarium solani (R-2800) at a concentration of 10 ug/disk; zone of inhibition was measured after 48 hr incubation; NE denotes not effective; format: functional, organism-based
[27] = system: Fusarium solani; experiment: Compound was tested for the antifungal activity against Fusarium solani (R-2800) at a concentration of 1 ug/disk; zone of inhibition was measured after 48 hr incubation; NE denotes not effective; format: functional, organism-based
[28] = system: Penicillium citrinum; experiment: Compound was tested for the antifungal activity against Penicillium citrinum (R-3703) at a concentration of 0.1 ug/disk; zone of inhibition was measured after 48 hr incubation.; format: functional
[29] = system: Saccharomyces cerevisiae; experiment: Compound was tested for the antifungal activity against Saccharomyces cerevisiae (IAM4861) at a concentration of 0.1 ug/disk; zone of inhibition was measured after 48 hr incubation; incomplete inhibition observed; format: functional
[30] = system: Saccharomyces cerevisiae; experiment: Compound was tested for the antifungal activity against Saccharomyces cerevisiae (IAM4861) at a concentration of 10 ug/disk; zone of inhibition was measured after 48 hr incubation; incomplete inhibition observed; format: functional
[31] = system: Saccharomyces cerevisiae; experiment: Compound was tested for the antifungal activity against Saccharomyces cerevisiae (IAM4861) at a concentration of 1 ug/disk; zone of inhibition was measured after 48 hr incubation; incomplete inhibition observed; format: functional
[32] = system: Aspergillus fumigatus; experiment: Compound was tested for the antifungal activity against Aspergillus fumigatus (R-1301) at a concentration of 1 ug/disk; zone of inhibition was measured after 48 hr incubation; +/- denotes slightly effective; format: functional, organism-based
[33] = system: MRC5; experiment: Cytotoxicity against the human diploid embryotic cell line (MRC-5); format: functional, cell-based
[34] = system: Aspergillus fumigatus; experiment: Compound was tested for the antifungal activity against Aspergillus fumigatus (R-1301) at a concentration of 10 ug/disk; zone of inhibition was measured after 48 hr incubation; format: functional
[35] = system: Candida albicans; experiment: Compound was tested for the antifungal activity against Candida albicans (IFO1594) at a concentration of 1 ug/disk; zone of inhibition was measured after 48 hr incubation; format: functional
[36] = system: Saccharomyces cerevisiae; experiment: Compound was tested for the antifungal activity against Saccharomyces cerevisiae (IAM4861) at a dose of 1 ug/disk; the diameter of each inhibition zone was measured after 48 hr incubation.; format: functional

CO\C=C(C(=O)OC)/C(C)=C(\C=C\c1ccc2ccccc2c1)OC
Diameter of inhibition zone [1]: 18 mm
Diameter of inhibition zone [2]: 4 mm
Diameter of inhibition zone [3]: 13 mm
Diameter of inhibition zone [4]: Weak activity
Diameter of inhibition zone [5]: 26 mm
Diameter of inhibition zone [6]: 16 mm
Diameter of inhibition zone [7]: 14 mm
Diameter of inhibition zone [8]: inactive
Diameter of inhibition zone [9]: 13 mm
IC50 ([10]; Homo sapiens, MRC5): > 100 µM
Diameter of inhibition zone [11]: Weak activity
Diameter of inhibition zone [12]: 19 mm
Diameter of inhibition zone [13]: 14 mm
Diameter of inhibition zone [14]: 37 mm
Diameter of inhibition zone [15]: 12 mm
Diameter of inhibition zone [16]: 30 mm

NYSTATIN [listing 1 of 2 here]
IC50 ([10]; mrc5): 34 µM

C=CC(C)(C)O[C@H]1COc2ccc(/C=C/C(OC)=C(C)\C(=C/OC)C(=O)OC)cc2OC1(C)C
Diameter of inhibition zone [1]: 10 mm
Diameter of inhibition zone [17]: Weak activity
Diameter of inhibition zone [3]: 8 mm
Diameter of inhibition zone [18]: inactive
Diameter of inhibition zone [5]: 22 mm
Diameter of inhibition zone [6]: 17 mm
Diameter of inhibition zone [7]: 19 mm
Diameter of inhibition zone [8]: inactive
Diameter of inhibition zone [9]: 25 mm
IC50 ([10]; Homo sapiens, MRC5): 0.36 µM
Diameter of inhibition zone [19]: inactive
Diameter of inhibition zone [20]: inactive
Diameter of inhibition zone [21]: inactive
Diameter of inhibition zone [22]: Weak activity
Diameter of inhibition zone [14]: 25 mm
Diameter of inhibition zone [16]: 20 mm

CO\C=C(C(=O)OC)/C(C)=C(\C=C\c1cccc(OC)c1)OC
Diameter of inhibition zone [1]: 23 mm
Diameter of inhibition zone [23]: inactive
Diameter of inhibition zone [3]: 9 mm
Diameter of inhibition zone [24]: 27 mm
Diameter of inhibition zone [4]: Weak activity
Diameter of inhibition zone [25]: 32 mm
Diameter of inhibition zone [8]: inactive
Diameter of inhibition zone [26]: inactive
Diameter of inhibition zone [27]: inactive
IC50 ([10]; Homo sapiens, MRC5): 27 µM
Diameter of inhibition zone [12]: 25 mm
Diameter of inhibition zone [13]: 19 mm
Diameter of inhibition zone [28]: 8 mm
Diameter of inhibition zone [29]: 16 mm
Diameter of inhibition zone [30]: 35 mm
Diameter of inhibition zone [31]: 29 mm

NYSTATIN [listing 2 of 2 here]
Diameter of inhibition zone [1]: 14 mm
Diameter of inhibition zone [5]: 16 mm
Diameter of inhibition zone [26]: inactive
Diameter of inhibition zone [12]: 12 mm
Diameter of inhibition zone [14]: 18 mm

CO\C=C(C(=O)OC)/C(C)=C(\C=C\c1ccc(OC)c(OC)c1)OC
Diameter of inhibition zone [1]: 20 mm
Diameter of inhibition zone [23]: inactive
Diameter of inhibition zone [32]: Weak activity
Diameter of inhibition zone [24]: 26 mm
Diameter of inhibition zone [4]: Weak activity
Diameter of inhibition zone [25]: 34 mm
Diameter of inhibition zone [8]: inactive
Diameter of inhibition zone [26]: inactive
Diameter of inhibition zone [27]: inactive
IC50 ([10]; Homo sapiens, MRC5): 12 µM
Diameter of inhibition zone [11]: Weak activity
Diameter of inhibition zone [12]: 22 mm
Diameter of inhibition zone [13]: 13 mm
Diameter of inhibition zone [29]: 20 mm
Diameter of inhibition zone [30]: 43 mm
Diameter of inhibition zone [31]: 38 mm

CO\C=C(C(=O)OC)/C(C)=C(\C=C\c1ccccc1)OC [9-METHOXYSTROBILURIN A]
Diameter of inhibition zone [1]: 31 mm
Diameter of inhibition zone [17]: slightly effective
Diameter of inhibition zone [3]: 15 mm
Diameter of inhibition zone [24]: 28 mm
Diameter of inhibition zone [4]: incomplete inhibition
Diameter of inhibition zone [25]: 36 mm
Diameter of inhibition zone [8]: inactive
Diameter of inhibition zone [26]: inactive
Diameter of inhibition zone [27]: inactive
IC50 [33]: 34 µM
Diameter of inhibition zone [12]: 28 mm
Diameter of inhibition zone [13]: 18 mm
Diameter of inhibition zone [28]: 4 mm
Diameter of inhibition zone [29]: 17 mm
Diameter of inhibition zone [30]: 49 mm
Diameter of inhibition zone [31]: 40 mm

CO\C=C(C(=O)OC)/C(C)=C(\C=C\c1cccc2ccccc12)OC
Diameter of inhibition zone [23]: inactive
Diameter of inhibition zone [34]: 14 mm
Diameter of inhibition zone [3]: 10 mm
Diameter of inhibition zone [18]: inactive
Diameter of inhibition zone [5]: 15 mm
Diameter of inhibition zone [35]: 5 mm
Diameter of inhibition zone [8]: inactive
Diameter of inhibition zone [26]: inactive
Diameter of inhibition zone [27]: inactive
IC50 ([10]; Homo sapiens, MRC5): > 100 µM
Diameter of inhibition zone [11]: Weak activity
Diameter of inhibition zone [12]: 17 mm
Diameter of inhibition zone [13]: 12 mm
Diameter of inhibition zone [14]: 22 mm
Diameter of inhibition zone [15]: 5 mm
Diameter of inhibition zone [36]: 18 mm

CO\C=C(C(=O)OC)/C(C)=C(\C=C\c1ccc2c(c1)OCO2)OC
Diameter of inhibition zone [1]: 22 mm
Diameter of inhibition zone [23]: inactive
Diameter of inhibition zone [32]: Weak activity
Diameter of inhibition zone [24]: 22 mm
Diameter of inhibition zone [4]: Weak activity
Diameter of inhibition zone [25]: 32 mm
Diameter of inhibition zone [8]: inactive
Diameter of inhibition zone [26]: inactive
Diameter of inhibition zone [27]: inactive
IC50 ([10]; Homo sapiens, MRC5): > 100 µM
Diameter of inhibition zone [11]: Weak activity
Diameter of inhibition zone [12]: 18 mm
Diameter of inhibition zone [13]: 10 mm
Diameter of inhibition zone [29]: 8 mm
Diameter of inhibition zone [30]: 42 mm
Diameter of inhibition zone [31]: 36 mm

CO\C=C(C(=O)OC)/C(C)=C(\C=C\c1ccc(OC)cc1)OC
Diameter of inhibition zone [1]: 29 mm
Diameter of inhibition zone [2]: 4 mm
Diameter of inhibition zone [3]: 18 mm
Diameter of inhibition zone [24]: 27 mm
Diameter of inhibition zone [4]: Weak activity
Diameter of inhibition zone [25]: 33 mm
Diameter of inhibition zone [8]: inactive
Diameter of inhibition zone [26]: inactive
Diameter of inhibition zone [27]: inactive
IC50 ([10]; Homo sapiens, MRC5): 35 µM
Diameter of inhibition zone [12]: 29 mm
Diameter of inhibition zone [13]: 23 mm
Diameter of inhibition zone [28]: 9 mm
Diameter of inhibition zone [29]: 28 mm
Diameter of inhibition zone [30]: 42 mm
Diameter of inhibition zone [31]: 36 mm

Source: ChEMBL document CHEMBL1136032, “Remarkable influence of the aromatic substructure in 9-methoxystrobilurin derivatives on their antifungal activity” (Bioorg Med Chem Lett, 2002)
